# Earlier results in patent US7560446B2, “Use of angiotensin II receptor antagonists for treating acute myocardial infarction” (Novartis AG, priority 1999, dated 2009).
# Conditions: preclinical; administration of the compound in acute MI; no details given
smiles,measurement,value
"CCCCC(=O)N(Cc1ccc(-c2ccccc2-c2nnn[nH]2)cc1)[C@H](C(=O)O)C(C)C [valsartan, (S)—N-(1-carboxy-2-methylprop-1-yl)-N-pentanoyl-N—[2′(1H-tetrazol-5-yl)biphenyl-4-ylmethyl]amine]",size of the MI,reduce the size of the MI
